From US6900216B2, “Dihydroimidazo[2,1-b]thiazole and dihydro-5h-thiazolo[3,2-A]pyrimidines as antidepressant agents” (Knoll GmbH, priority 2000, dated 2005)
pKi: −log10 of the molar value.

Test system: muscarinic receptors
Experiment: Muscarinic binding: displacement of [3H]N-methylscopolamine, rat frontal cortical membranes
Conditions: for Muscarinic % displacement at 10^−6 M: 10^−6 M test compound, single determination, [3H]N-methylscopolamine; for pKi: [3H]N-methylscopolamine 0.15 nM, rat frontal cortical membranes
Protocol: Frontal cortical tissue from the brains of male Charles River rats weighing 150-250 g was homogenised in ice-cold 20 mM HEPES buffer, pH 7.5 (measured at 25° C.) containing 100 mM sodium chloride and 10 mM magnesium chloride (1:10 w/v) using a Polytron PT3100 (speed setting 21,700 rpm, 3×5 seconds) and centrifuged at 49,500 g for 30 minutes at 4° C. The supernatant was discarded and the pellet rehomogenised in 20 mM HEPES buffer, pH 7.5 containing 100 mM sodium chloride and 10 mM magnesium chloride (equivalent to 12.5 mg wet weight of tissue/ml). Membranes were stored at −80° C. until required.
Membranes were thawed, diluted 1:10 in ice-cold 20 mM HEPES buffer, pH 7.5 containing 100 mM sodium chloride and 10 mM magnesium chloride and homogenised using a Polytron PT3100 as above. Diluted membranes (200 μl; equivalent to 0.25 mg wet weight of tissue/tube) were incubated with 200 μl of 20 mM HEPES buffer, pH 7.5 containing 100 mM sodium chloride and 10 mM magnesium chloride and 50 μl [^3H]N-methylscopolamine at a single concentration of 0.15 nM and 50 μl distilled water (total binding) or 50 μl test compound (at a single concentration of 10^−6 M or at 10 concentrations ranging from 10^−11-10^−3 M) or 50 μl atropine sulphate (1 μM; non-specific binding) for 30 min at 30° C. Membrane bound radioactivity was recovered by filtration under vacuum through Skatron 11734 filters using a Skatron cell harvester. Filters were rapidly washed with ice-cold 20 mM HEPES buffer, pH 7.5 (wash 1,2 at setting 5,5). The scored filter paper discs were punched out into vials, scintillation fluid added and radioactivity determined by liquid scintillation counting.
For each of these tests measuring the ability of compounds of Formula I to displace standard ligands from 5-HT1A receptors and 5-hydroxytryptamine (5-HT) and noradrenaline (NA) reuptake sites and muscarinic receptors in vitro, the percentage displacement of specific binding of tritiated ligand by 10^−6 M test compound was calculated in the following way.
Firstly, specific binding of tritiated ligand in the absence (A) and presence (B) of test compound was determined:
In the absence of compound: A(dpm)=Total binding (dpm)−Non-specific binding (dpm) In the presence of compound (10^−6 M): B(dpm)=Binding at 10^−6M (dpm)−Non-specific binding (dpm)
The specific binding of tritiated ligand in the presence (B) of compound was then converted to a percentage of specific binding of tritiated ligand in the absence (A) of compound: % Specific binding at 10^−6 M=B(dpm)/A(dpm)×100
The percentage displacement of specific binding of tritiated ligand by the test compound (10^−6 M) was then obtained by subtraction of the percentage specific binding in the presence of compound from the percentage specific binding in the absence of compound, which is taken as the maximum binding and so equals 100%:
% Displacement at 10^−6 M=100−% Specific binding at 10^−6 M.
In some cases, displacement curves were then produced for compounds which displaced ≧50% of specific binding of the tritiated ligand at 10^−6 M using a range of concentrations of the compound. The Ki was then calculated by simultaneous fitting using equations derived from the Feldman equations by robust non-linear regression to data from three experiments simultaneously (De Lean et al., 1978; Munson and Rodbard, 1980; Feldman, 1992). Munson P J and Rodbard D. Ligand: a versatile computerised approach for characterisation of ligand binding systems. Anal Biochem 1980; 107: 220. Feldman HA. Mathematical theory of complex ligand binding systems at equilibrium: some methods for parameter fitting. Anal Biochem 1992: 48, 317. De Lean A, Munson P J and Rodbard D. Simultaneous analysis of families of sigmoidal curves: application to bioassay, radioligand assay, and physiological dose-response curves. Am J Physiol 1978: 235 (2), E97-E102. […]

Row | SMILES | Muscarinic % displacement at 10^−6 M [%] | pKi
1 | CC1=C(c2cccc3sc(C)cc23)N2CCN=C2S1.Cl [Example 33, 2-methyl-3-(2-methylbenzo[b]thiophen-4-yl)-5,6-dihydroimidazo[2,1-b]thiazole hydrochloride] | 38 | –
2 | CC(C)C1=C(c2cccc3sccc23)N2CCN=C2S1.O=C(O)/C=C/C(=O)O [Example 35, 3-(benzo[b]thiophen-4-yl)-2-(1-methylethyl)-5,6-dihydroimidazo[2,1-b]thiazole fumarate] | – | 6.31
3 | Br.CC1=C(c2ccc3ccsc3c2)N2CCN=C2S1 [Example 37, 3-(benzo[b]thiophen-6-yl)-2-methyl-5,6-dihydroimidazo[2,1-b]thiazole hydrobromide] | 9 | –
4 | Br.CC1=C(c2ccc(F)c3sccc23)N2CCN=C2S1 [Example 38, 3-(7-fluorobenzo[b]thiophen-4-yl)-2-methyl-5,6-dihydroimidazo[2,1-b]thiazole hydrobromide] | 12 | –

The remaining lines, values ahead:

Row | Muscarinic % displacement at 10^−6 M [%] | pKi | SMILES
5 | – | 7.12 | Br.c1cc(C2=C(C3CC3)SC3=NCCN32)c2ccsc2c1 [Example 34, 3-(benzo[b]thiophen-4-yl)-2-cyclopropyl-5,6-dihydroimidazo[2,1-b]thiazole hydrobromide]
6 | – | 7.18 | Br.C=CCC1=C(c2cccc3sccc23)N2CCN=C2S1 [Example 36, 2-allyl-3-(benzo[b]thiophen-4-yl)-5,6-dihydroimidazo[2,1-b]thiazole hydrobromide]
